US10781224B2, “Bis(oxymethyl)phosphinic acid and biogenic metal salts thereof as regulators of plant growth and development” (priority 2016, dated 2020)

Experiments:
[1] = tested on: corn (Krasnodar 385 MV variety); assay: Corn seed treatment with BHMPA salts: germination energy and germination rate; format: in vivo
Method: Control—Soaking Seeds in Water;
(§1) Experimental versions—soaking seeds in BHMPA solutions and solutions of BHMPA Ca, Mg, Na, Co, Mn, Cu, and Zn salts at 1·10^−6-1·10^−12% concentrations (doses). The studies were conducted in laboratory in Petri dishes; seed bed—two layers of filter paper. 50 seeds soaked in water (control) and in the solutions of the tested compounds (experimental) were placed into each dish. Wheat, corn, and rice seeds were exposed for one hour.
Analysis was conducted according to the government standards GOST 12038-84 “Crop seeds. Technical conditions for determining the germination energy and germination rate”, GOST 12044-93 “Crop seeds. Methods for determining disease contamination.”
(§2) Seed germination energy and rate were calculated in percent as an arithmetic mean of the four experimental results (germination energy on the 4th day, wheat germination on the 8th day, rice and corn germination—on the 7th day). Germination was determined based on the germinating power indicators (length of the roots and sprouts and their wet and dry mass per 100 shoots).
(§3) The effect of pre-sowing seed treatment with the claimed BHMPA salts of biogenic metals was studied on winter wheat (Vershin variety), corn (Krasnodar 385 MV variety), and rice (Diamant variety).

[2] = tested on: rice (Diamant variety); assay: Rice seed treatment with BHMPA salts: germinating power; format: in vivo
Method: as §1, §2, §3
The above data describe the seed viability only at the initial stage of germination, while the germination ability at the later stage of germination is defined by the initial germinating power. The method for the determination of the germinating power comprises measuring the height of the sprouts and primary roots, as well as the biomass and the dry mass thereof per 100 seedlings. [M. A. Kartuzova. Initial Germinating Power as Method of Biological Assessment of Seed Quality. Selection and Seed Farming, #2, 1953].

[3] = comparative study vs Melaphen, 1·10^−10% solution
[4] = rice seed treatment, comparison with Melaphen (Table XXXIII), solution 1 · 10^−9%
[5] = rice seeds, solution concentration 1 · 10^−6%
[6] = rice seeds, solution concentration 1 · 10^−7%
[7] = rice seeds, solution concentration 1 · 10^−8%
[8] = rice seeds, solution concentration 1 · 10^−9%
[9] = rice seeds, solution concentration 1 · 10^−10%
[10] = rice seeds, solution concentration 1 · 10^−11%
[11] = rice seeds, solution concentration 1 · 10^−12%
[12] = rice, vs control, 1·10^−9% solution

O=P([O-])(CO)CO.O=P([O-])(CO)CO.[Ca+2] [Ca-salt, Calcium BHMPA Salt]
Germination energy ([1]; 1·10^−6% solution): 74.3% | Germination rate ([1]; 1·10^−6% solution): 77.0% | Germination energy ([1]; 1·10^−7% solution): 77.3% | Germination rate ([1]; 1·10^−7% solution): 82.0% | Germination energy ([1]; 1·10^−8% solution): 81.8% | Germination rate ([1]; 1·10^−8% solution): 84.2% | Germination energy ([1]; 1·10^−9% solution): 85.0% | Germination rate ([1]; 1·10^−9% solution): 87.7% | Germination energy ([1]; 1·10^−10% solution): 87.8% | Germination rate ([1]; 1·10^−10% solution): 90.0% | Germination energy ([1]; 1·10^−11% solution): 85.5% | Germination rate ([1]; 1·10^−11% solution): 88.3% | Germination energy ([1]; 1·10^−12% solution): 82.3% | Germination rate ([1]; 1·10^−12% solution): 85.0% | Germination energy [1, 3]: 85.0% | Germination rate [1, 3]: 95.3% | optimum concentration for treating rice seeds before sowing ([2]; rice): 1·10^−9% | Length, root [2, 4]: 6.2 cm | Length, root, + % to control [2, 4]: 29% | Length, sprout [2, 4]: 3.5 cm | Length, sprout, + % to control [2, 4]: 35% | Mass, dry, root [2, 4]: 0.23 g/100 plantlings | Mass, dry, root, + % to control [2, 4]: 9.5% | Mass, dry, sprout [2, 4]: 0.27 g/100 plantlings | Mass, dry, sprout, + % to control [2, 4]: 8% | Mass, wet, root [2, 4]: 1.33 g/100 plantlings | Mass, wet, root, + % to control [2, 4]: 36% | Mass, wet, sprout [2, 4]: 2.24 g/100 plantlings | Mass, wet, sprout, + % to control [2, 4]: 48% | Length, root [2, 5]: 5.7 cm | Length, root, + % to control [2, 5]: 10% | Length, sprout [2, 5]: 2.8 cm | Length, sprout, + % to control [2, 5]: 12% | Mass, dry, root [2, 5]: 0.19 g/100 plantlings | Mass, dry, root, + % to control [2, 5]: 12% | Mass, dry, sprout [2, 5]: 0.23 g/100 plantlings | Mass, dry, sprout, + % to control [2, 5]: 9.5% | Mass, wet, root [2, 5]: 1.10 g/100 plantlings | Mass, wet, root, + % to control [2, 5]: 14.5% | Mass, wet, sprout [2, 5]: 1.92 g/100 plantlings | Mass, wet, sprout, + % to control [2, 5]: 9% | Length, root [2, 6]: 5.9 cm | Length, root, + % to control [2, 6]: 13% | Length, sprout [2, 6]: 3.0 cm | Length, sprout, + % to control [2, 6]: 20% | Mass, dry, root [2, 6]: 0.24 g/100 plantlings | Mass, dry, root, + % to control [2, 6]: 41% | Mass, dry, sprout [2, 6]: 0.26 g/100 plantlings | Mass, dry, sprout, + % to control [2, 6]: 24% | Mass, wet, root [2, 6]: 1.21 g/100 plantlings | Mass, wet, root, + % to control [2, 6]: 26% | Mass, wet, sprout [2, 6]: 2.16 g/100 plantlings | Mass, wet, sprout, + % to control [2, 6]: 23% | Length, root [2, 7]: 6.3 cm | Length, root, + % to control [2, 7]: 21% | Length, sprout [2, 7]: 3.1 cm | Length, sprout, + % to control [2, 7]: 24% | Mass, dry, root [2, 7]: 0.27 g/100 plantlings | Mass, dry, root, + % to control [2, 7]: 59% | Mass, dry, sprout [2, 7]: 0.28 g/100 plantlings | Mass, dry, sprout, + % to control [2, 7]: 33% | Mass, wet, root [2, 7]: 1.24 g/100 plantlings | Mass, wet, root, + % to control [2, 7]: 29% | Mass, wet, sprout [2, 7]: 2.25 g/100 plantlings | Mass, wet, sprout, + % to control [2, 7]: 28% | Length, root [2, 8]: 6.6 cm | Length, root, + % to control [2, 8]: 27% | Length, sprout [2, 8]: 3.2 cm | Length, sprout, + % to control [2, 8]: 28% | Mass, dry, root [2, 8]: 0.30 g/100 plantlings | Mass, dry, root, + % to control [2, 8]: 76% | Mass, dry, sprout [2, 8]: 0.32 g/100 plantlings | Mass, dry, sprout, + % to control [2, 8]: 52% | Mass, wet, root [2, 8]: 1.29 g/100 plantlings | Mass, wet, root, + % to control [2, 8]: 34% | Mass, wet, sprout [2, 8]: 2.36 g/100 plantlings | Mass, wet, sprout, + % to control [2, 8]: 34% | Length, root [2, 9]: 6.4 cm | Length, root, + % to control [2, 9]: 23% | Length, sprout [2, 9]: 3.0 cm | Length, sprout, + % to control [2, 9]: 20% | Mass, dry, root [2, 9]: 0.28 g/100 plantlings | Mass, dry, root, + % to control [2, 9]: 65% | Mass, dry, sprout [2, 9]: 0.29 g/100 plantlings | Mass, dry, sprout, + % to control [2, 9]: 38% | Mass, wet, root [2, 9]: 1.27 g/100 plantlings | Mass, wet, root, + % to control [2, 9]: 32% | Mass, wet, sprout [2, 9]: 2.28 g/100 plantlings | Mass, wet, sprout, + % to control [2, 9]: 29.5% | Length, root [2, 10]: 6.0 cm | Length, root, + % to control [2, 10]: 15% | Length, sprout [2, 10]: 2.9 cm | Length, sprout, + % to control [2, 10]: 16% | Mass, dry, root [2, 10]: 0.23 g/100 plantlings | Mass, dry, root, + % to control [2, 10]: 35% | Mass, dry, sprout [2, 10]: 0.27 g/100 plantlings | Mass, dry, sprout, + % to control [2, 10]: 28.5% | Mass, wet, root [2, 10]: 1.22 g/100 plantlings | Mass, wet, root, + % to control [2, 10]: 27% | Mass, wet, sprout [2, 10]: 1.98 g/100 plantlings | Mass, wet, sprout, + % to control [2, 10]: 12.5% | Length, root [2, 11]: 5.6 cm | Length, root, + % to control [2, 11]: 8% | Length, sprout [2, 11]: 2.7 cm | Length, sprout, + % to control [2, 11]: 8% | Mass, dry, root [2, 11]: 0.19 g/100 plantlings | Mass, dry, root, + % to control [2, 11]: 12% | Mass, dry, sprout [2, 11]: 0.26 g/100 plantlings | Mass, dry, sprout, + % to control [2, 11]: 24% | Mass, wet, root [2, 11]: 1.06 g/100 plantlings | Mass, wet, root, + % to control [2, 11]: 10% | Mass, wet, sprout [2, 11]: 1.88 g/100 plantlings | Mass, wet, sprout, + % to control [2, 11]: 7% | dry mass of the roots increased by [2, 12]: 76% | dry mass of the sprouts increased by [2, 12]: 52% | length of the root increased by [2, 12]: 27% | length of the sprout increased by [2, 12]: 28% | wet mass of the roots increased by [2, 12]: 34% | wet mass of the sprouts increased by [2, 12]: 34%
